ChEMBL document CHEMBL1129306, “3-((4-(4-Chlorophenyl)piperazin-1-yl)-methyl)-1H-pyrrolo-2,3-b-pyridine: an antagonist with high affinity and selectivity for the human dopamine D4 receptor” (J Med Chem, 1996)

What was measured:
[1] = biological target: T1, D(4) dopamine receptor (Homo sapiens, UniProt P21917); experiment: biochemical
T1 sequence (P21917 whole entry): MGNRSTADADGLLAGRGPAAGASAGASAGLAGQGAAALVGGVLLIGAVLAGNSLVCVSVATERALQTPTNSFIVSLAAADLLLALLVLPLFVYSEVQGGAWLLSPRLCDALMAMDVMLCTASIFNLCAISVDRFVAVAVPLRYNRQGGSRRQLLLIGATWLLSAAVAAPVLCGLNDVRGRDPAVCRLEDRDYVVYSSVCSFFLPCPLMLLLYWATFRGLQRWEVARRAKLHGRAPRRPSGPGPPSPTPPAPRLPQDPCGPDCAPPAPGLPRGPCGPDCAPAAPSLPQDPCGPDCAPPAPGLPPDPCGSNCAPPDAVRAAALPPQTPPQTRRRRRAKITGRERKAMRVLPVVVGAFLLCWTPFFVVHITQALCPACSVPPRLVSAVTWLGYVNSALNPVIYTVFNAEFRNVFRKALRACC
Description: Binding affinity towards cloned human Dopamine receptor D4 stably expressed in CHO cells was evaluated using [3H]spiperone as radioligand

[2] = biological target: D(3) dopamine receptor (Homo sapiens, UniProt P35462); experiment: biochemical
Sequence of D(3) dopamine receptor (P35462 whole entry): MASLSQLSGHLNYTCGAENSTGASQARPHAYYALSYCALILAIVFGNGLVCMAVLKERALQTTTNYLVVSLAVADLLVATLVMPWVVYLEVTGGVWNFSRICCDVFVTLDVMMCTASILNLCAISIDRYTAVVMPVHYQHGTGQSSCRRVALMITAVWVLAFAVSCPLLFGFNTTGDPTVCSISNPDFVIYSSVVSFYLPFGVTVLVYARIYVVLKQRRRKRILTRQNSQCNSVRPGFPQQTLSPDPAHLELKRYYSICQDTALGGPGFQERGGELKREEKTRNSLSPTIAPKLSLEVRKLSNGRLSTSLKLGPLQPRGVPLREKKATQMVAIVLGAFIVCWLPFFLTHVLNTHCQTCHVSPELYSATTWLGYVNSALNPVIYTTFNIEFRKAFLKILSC
Description: Binding affinity towards cloned human Dopamine receptor D3 stably expressed in CHO cells was evaluated using [3H]spiperone as radioligand

| SMILES | Ki [1] [nM] | Ki [2] [nM] |
| --- | --- | --- |
| c1ccc(N2CCN(Cc3c[nH]c4ccccc34)CC2)cc1 | 8 | 280 |
| OC1(c2ccc(Cl)cc2)CCN(Cc2c[nH]c3ccccc23)CC1 | 220 | 100 |
| c1ccc(C2CCN(Cc3c[nH]c4ccccc34)CC2)cc1 | 25 | 95 |
| c1ccc2c(CN3CCCCC3)c[nH]c2c1 | > 2600 | > 3700 |
| CC1CCN(Cc2c[nH]c3ccccc23)CC1 | 570 | 6700 |
| Ic1ccc(N2CCN(Cc3c[nH]c4ncccc34)CC2)cc1 | 0.51 | > 4500 |
